{
  "source": "patent US12227747B2",
  "about": "“Composition comprising aptamer as active ingredient for treatment and prevention of degenerative brain disease” (Nexmos Co., LTD, priority 2018, dated 2025)",
  "key": {"[1]": {"assay": "Storage of vitamin C with aptamer at room temperature for 8 weeks, reducing activity by DCPIP", "format": "physicochemical", "conditions": "FIG. 5", "from_the_text": "(§1) FIGS. 4-5 is a diagram showing a fluorescence-based microplate assay that inhibits ascorbic acid oxidation, and FIG. 4 is an experimental result using OPDA, a substance that becomes fluorescent by binding to DHA. […] FIG. 5 is a comparison of the antioxidant activity of remaining ascorbic acid using DCPIP after AptaminC3T31+ascorbic acid and ascorbic acid were left for 8 weeks under the same conditions. AptaminC3T31+ascorbic acid maintained 50% antioxidant activity even after 8 weeks,\nThe aptamin C of the present invention was maintained at room temperature for 8 weeks and the reducing activity of ascorbic acid was measured using DCPIP (2,6-Dichlorophenolindophenol)."}, "[2]": {"assay": "Fluorescence-based microplate assay (OPDA) of ascorbic acid oxidation", "format": "physicochemical", "from_the_text": "as §1\nThe oxidation of ascorbic acid was measured in reverse with detecting the oxidized product dehydroascorbic acid (DHA) with modifying a method described in Vislisel et al. (Vislisel, J. M. Schafer, F. O. and Buettner, G. R. (2007) Analytical biochemistry, 365, 31-39).\nBriefly, aptamers were incubated with AA (10.3 μM) at 4× concentration for 30 minutes at room temperature before addition of 25 μM H2O2 (Sigma). Before the addition of OPDA dye (Sigma), the oxidizing agent sample was added and incubated at room temperature for 10 minutes. Immediately after addition of the dye (954.6 μM) sample, and read at excitation 345 nm; emission: 425 nm with a SpectraMax® plate reader (Molecular Devices) for 45 minutes at intervals of 60 seconds until the control converges. […] All fluorescence assays were performed in black 384-well plates (greiner bio-one). […]"}, "[3]": {"assay": "ITC (Isothermal Titration calorimetry) of the aptamer binding to ascorbic acid", "conditions": "FIG. 7, read-out: binding affinity between the aptamer and ascorbic acid"}},
  "data": [
    {"substance": "AptaminC3T31: DNA aptamer binding vitamin C (ascorbic acid); SEQ ID NO: 1, GTGGAGGCGGTGGCCAGTCTCGCGGTGGCGGC (DNA GTGGAGGCGGTGGCCAGTCTCGCGGTGGCGGC; listed as DNA, chemistry not given here)", "values": [
      {"measurement": "increase of shelf life compared to ascorbic acid alone", "setting": "[1]", "result": "≥ 4", "unit": "times"},
      {"measurement": "oxidation of ascorbic acid (DHA detected with OPDA fluorescence)", "setting": "[2]; ascorbic acid treated with hydrogen peroxide, FIG. 4", "result": "oxidation of ascorbic acid is prevented"},
      {"measurement": "ability to protect AA from oxidation", "setting": "[2]; screen of top 20 candidate aptamers from SELEX", "result": "best effect"},
      {"measurement": "Kd", "setting": "[3]", "result": 900, "unit": "nM"}
    ]}
  ]
}
